Source: US7632833B2, “Mitotic kinesin inhibitors” (Merck & Co., Inc., priority 2004, dated 2009)

Molecular target: T1, human poly-histidine tagged KSP motor domain (KSP(367H)) (Homo sapiens, UniProt P52732)
T1 construct: were used to amplify the motor domain and the neck linker region; made in house; host or cells: E. coli BL21 (DE3), vector pRSETa
T1 sequence (P52732 18-359 limits assumed): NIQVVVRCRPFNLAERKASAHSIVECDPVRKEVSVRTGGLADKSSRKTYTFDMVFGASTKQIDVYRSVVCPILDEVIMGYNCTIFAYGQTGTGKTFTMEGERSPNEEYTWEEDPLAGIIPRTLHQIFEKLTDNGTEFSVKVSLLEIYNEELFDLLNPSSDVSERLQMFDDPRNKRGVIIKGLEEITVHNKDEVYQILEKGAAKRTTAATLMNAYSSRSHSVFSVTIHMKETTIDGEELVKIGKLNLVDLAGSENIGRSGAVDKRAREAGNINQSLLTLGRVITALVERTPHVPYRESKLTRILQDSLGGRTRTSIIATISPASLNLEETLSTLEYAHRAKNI
Assay: Kinesin ATPase In Vitro Assay
Type: biochemical
Settings: not given
Protocol: I. Kinesin ATPase In Vitro Assay
The N-terminal primer 5′-[…] (SEQ. ID. NO.: 1) and the C-terminal primer 5′-[…] […] (SEQ. ID. NO.: 2)
were used to amplify the motor domain and the neck linker region. The PCR products were digested with AseI and XhoI, ligated into the NdeI/XhoI digestion product of pRSETa (Invitrogen) and transformed into E. coli BL21 (DE3).
Cells were grown at 37° C. to an OD600 of 0.5. After cooling the culture to room temperature expression of KSP was induced with 100 μM IPTG and incubation was continued overnight. Cells were pelleted by centrifugation and washed once with ice-cold PBS. Pellets were flash-frozen and stored −80° C.
Protein Purification: Cell pellets were thawed on ice and resuspended in lysis buffer (50 mM K-HEPES, pH 8.0, 250 mM KCl, 0.1% Tween, 10 mM imidazole, 0.5 mM Mg-ATP, 1 mM PMSF, 2 mM benzimidine, 1× complete protease inhibitor cocktail (Roche)). Cell suspensions were incubated with 1 mg/ml lysozyme and 5 mM β-mercaptoethanol on ice for 10 minutes, followed by sonication (3×30 sec). All subsequent procedures were performed at 4° C. Lysates were centrifuged at 40,000×g for 40 minutes. Supernatants were diluted and loaded onto an SP Sepharose column (Pharmacia, 5 ml cartridge) in buffer A (50 mM K-HEPES, pH 6.8, 1 mM MgCl2, 1 mM EGTA, 10 μM Mg-ATP, 1 mM DTT) and eluted with a 0 to 750 mM KCl gradient in buffer A. Fractions containing KSP were pooled and incubated with Ni-NTA resin (Qiagen) for one hour. The resin was washed three times with buffer B (Lysis buffer minus PMSF and protease inhibitor cocktail), followed by three 15-minute incubations and washes with buffer B. Finally, the resin was incubated and washed for 15 minutes three times with buffer C (same as buffer B except for pH 6.0) and poured into a column. KSP was eluted with elution buffer (identical to buffer B except for 150 mM KCl and 250 mM imidazole). KSP-containing fractions were pooled, made 10% in sucrose, and stored at −80° C.
Microtubules are prepared from tubulin isolated from bovine brain. Purified tubulin (>97% MAP-free) at 1 mg/ml is polymerized at 37° C. in the presence of 10 μM paclitaxel, 1 mM DTT, 1 mM GTP in BRB80 buffer (80 mM K-PIPES, 1 mM EGTA, 1 mM MgCl2 at pH 6.8). The resulting microtubules are separated from non-polymerized tubulin by ultracentrifugation and removal of the supernatant. The pellet, containing the microtubules, is gently resuspended in 10 μM paclitaxel, 1 mM DTT, 50 μg/ml ampicillin, and 5 μg/ml chloramphenicol in BRB80.
The kinesin motor domain is incubated with microtubules, 1 mM ATP (1:1 MgCl2: Na-ATP), and compound at 23° C. in buffer containing 80 mM K-HEPES (pH 7.0), […], 1 mM DTT, 1 mM MgCl2, and 50 mM KCl. The reaction is terminated by a 2-10 fold dilution with a final buffer composition of 80 mM HEPES and 50 mM EDTA. […] The reaction is incubated for 10 minutes at 23° C., and the absorbance of the phospho-molybdate complex is measured at 540 nm.

| Compound | IC50 [µM] |
| --- | --- |
| CC(=O)C1=NN2c3cc(C)ccc3OCC2C1(CCCN(C)C)c1ccccc1 [Compound 4-18, (3R,4R) 1-{3-[3-(dimethylamino)propyl]-8-methyl-3-phenyl-3a,4-dihydro-3H-pyrazolo[5,1-c][1,4]benzoxazin-2-yl}ethanone] | ≤ 30 |
| CC(=O)C1=NN2c3cc(F)ccc3OCC2C1(CCCN1CCOCC1)c1ccccc1 [Compound 4-14, (3R,4R) 1-[8-fluoro-3-(3-morpholin-4-ylpropyl)-3-phenyl-3a,4-dihydro-3H-pyrazolo[5,1-c][1,4]benzoxazin-2-yl]ethanone] | ≤ 30 |
| CC(=O)C1=NN2c3cc(F)ccc3OC[C@H]2[C@@]1(CCCN1CCC(=O)N(C)CC1)c1ccccc1 [Compound 4-38, 1-{3-[(3R,4R)-2-acetyl-8-fluoro-3-phenyl-3a,4-dihydro-3H-pyrazolo[5,1-c][1,4]benzoxazin-3-yl]propyl}-4-methyl-1,4-diazepan-5-one] | ≤ 30 |
| CC(=O)C1=NN2c3cc(F)ccc3OCC2C1(CCCN1CCNCC1)c1ccccc1 [Compound 4-23, (3R,4R) 1-[8-fluoro-3-phenyl-3-(3-piperazin-1-ylpropyl)-3a,4-dihydro-3H-pyrazolo[5,1-c][1,4]benzoxazin-2-yl]ethanone] | ≤ 30 |
| CC(=O)C1=NN2c3cc(F)ccc3OCC2C1(CCCN(C)C)c1ccccc1 [Compound 4-13, (3R,4R) 1-{3-[3-(dimethylamino)propyl]-8-fluoro-3-phenyl-3a,4-dihydro-3H-pyrazolo[5,1-c][1,4]benzoxazin-2-yl}ethanone] | ≤ 30 |
| CC(=O)C1=NN2c3cc(F)ccc3OC[C@H]2[C@@]1(CCCN1CCN(C(C)=O)CC1)c1ccccc1 [Compound 5-10, 1-{(3R,4R)-3-[3-(4-acetylpiperazin-1-yl)propyl]-8-fluoro-3-phenyl-3a,4-dihydro-3H-pyrazolo[5,1-c][1,4]benzoxazin-2-yl}ethanone] | ≤ 30 |

Same assay, conditions: (3R,4R) enantiomeric form tested; kinesin motor domain with microtubules, 1 mM ATP, 23° C., free phosphate by quinaldine red/ammonium molybdate; read-out: IC50

| Compound | IC50 [µM] |
| --- | --- |
| CC(=O)C1=NN2c3cc(F)ccc3OC[C@H]2[C@@]1(CCCN1CCN(C(=O)C(C)(C)C)CC1)c1ccccc1 [Compound 4-30, 1-((3R,4R)-3-{3-[4-(2,2-dimethylpropanoyl)piperazin-1-yl]propyl}-8-fluoro-3-phenyl-3a,4-dihydro-3H-pyrazolo[5,1-c][1,4]benzoxazin-2-yl)ethanone] | ≤ 30 |
| CON(C)C(=O)C1=NN2c3cc(F)ccc3OC[C@H]2[C@H]1c1ccccc1 [Compound 1-7, (3R,4R)-8-Fluoro-N-methoxy-N-methyl-3-phenyl-3a,4-dihydro-3H-pyrazolo[5,1-c][1,4]benzoxazine-2-carboxamide] | ≤ 30 |
| CNC(=O)N1CCN(CCC[C@]2(c3ccccc3)C(C(C)=O)=NN3c4cc(F)ccc4OC[C@H]32)CC1 [Compound 4-28, 4-{3-[(3R,4R)-2-acetyl-8-fluoro-3-phenyl-3a,4-dihydro-3H-pyrazolo[5,1-c][1,4]benzoxazin-3-yl]propyl}-N-methylpiperazine-1-carboxamide] | ≤ 30 |
| CC(=O)C1=NN2c3cc(F)ccc3OC[C@H]2[C@@]1(CCCN1CCN(C(=O)c2ccco2)CC1)c1ccccc1 [Compound 4-33, 1-((3R,4R)-8-fluoro-3-{3-[4-(2-furoyl)piperazin-1-yl]propyl}-3-phenyl-3a,4-dihydro-3H-pyrazolo[5,1-c][1,4]benzoxazin-2-yl)ethanone] | ≤ 30 |
| COC(=O)CC(=O)N1CCN(CCC[C@]2(c3ccccc3)C(C(C)=O)=NN3c4cc(F)ccc4OC[C@H]32)CC1 [Compound 4-32, methyl 3-(4-{3-[(3R,4R)-2-acetyl-8-fluoro-3-phenyl-3a,4-dihydro-3H-pyrazolo[5,1-c][1,4]benzoxazin-3-yl]propyl}piperazin-1-yl)-3-oxopropanoate] | ≤ 30 |
| CON(C)C(=O)C1=NN2c3cc(F)ccc3OC[C@H]2[C@@]1(CCCO)c1ccccc1 [Compound 4-11, (3R,4R) 8-fluoro-3-(3-hydroxypropyl)-N-methoxy-N-methyl-3-phenyl-3a,4-dihydro-3H-pyrazolo[5,1-c][1,4]benzoxazine-2-carboxamide] | ≤ 30 |
| CC(=O)C1=NN2c3cc(F)ccc3OC[C@H]2[C@@]1(CCCN1CCN(C(=O)c2cc(C)on2)CC1)c1ccccc1 [Compound 4-35, 1-[(3R,4R)-8-fluoro-3-(3-{4-[(5-methylisoxazol-3-yl)carbonyl]piperazin-1-yl}propyl)-3-phenyl-3a,4-dihydro-3H-pyrazolo[5,1-c][1,4]benzoxazin-2-yl]ethanone] | ≤ 30 |
| COCC(=O)N1CCN(CCC[C@]2(c3ccccc3)C(C(C)=O)=NN3c4cc(F)ccc4OC[C@H]32)CC1 [Compound 4-26, 1-((3R,4R)-8-fluoro-3-{3-[4-(methoxyacetyl)piperazin-1-yl]propyl}-3-phenyl-3a,4-dihydro-3H-pyrazolo[5,1-c][1,4]benzoxazin-2-yl)ethanone] | ≤ 30 |
| CC(=O)C1=NN2c3cc(C)ccc3OCC2[C@@]1(CCCN1CC2C[C@@H]1CO2)c1ccccc1 (mixture of isomers) [Compound 4-20, (3R,4R) 1-{8-methyl-3-[3-(2-oxa-5-azabicyclo[2.2.1]hept-5-yl)propyl]-3-phenyl-3a,4-dihydro-3H-pyrazolo[5,1-c][1,4]benzoxazin-2-yl}ethanone] | ≤ 30 |
| CC(=O)C1=NN2c3cc(F)ccc3OC[C@H]2[C@@]1(CCCN1CCN(C(=O)c2ccno2)CC1)c1ccccc1 [Compound 4-34, 1-((3R,4R)-8-fluoro-3-{3-[4-(isoxazol-5-ylcarbonyl)piperazin-1-yl]propyl}-3-phenyl-3a,4-dihydro-3H-pyrazolo[5,1-c][1,4]benzoxazin-2-yl)ethanone] | ≤ 30 |
| CC(=O)C1=NN2c3cc(F)ccc3OC[C@H]2[C@@]1(CCCN1CCN(C(=O)CO)CC1)c1ccccc1 [Compound 4-25, 1-{(3R,4R)-8-fluoro-3-[3-(4-glycoloylpiperazin-1-yl)propyl]-3-phenyl-3a,4-dihydro-3H-pyrazolo[5,1-c][1,4]benzoxazin-2-yl}ethanone] | ≤ 30 |
| CC(=O)NCCNCCC[C@]1(c2ccccc2)C(C(C)=O)=NN2c3cc(F)ccc3OC[C@H]21 [Compound 4-40, N-[2-({3-[(3R,4R)-2-acetyl-8-fluoro-3-phenyl-3a,4-dihydro-3H-pyrazolo[5,1-c][1,4]benzoxazin-3-yl]propyl}amino)ethyl]acetamide] | ≤ 30 |
| CC(=O)C1=NN2c3cc(F)ccc3OCC2[C@@]1(CCCN1CC2C[C@@H]1CO2)c1ccccc1 (mixture of isomers) [Compound 4-15, (3R,4R) 1-{8-fluoro-3-[3-(2-oxa-5-azabicyclo[2.2.1]hept-5-yl)propyl]-3-phenyl-3a,4-dihydro-3H-pyrazolo[5,1-c][1,4]benzoxazin-2-yl}ethanone] | ≤ 30 |
| CC(=O)C1=NN2c3cc(F)ccc3OC[C@H]2[C@@]1(CCCN1CCN(C)C(=O)C1)c1ccccc1 [Compound 4-37, 4-{3-[(3R,4R)-2-acetyl-8-fluoro-3-phenyl-3a,4-dihydro-3H-pyrazolo[5,1-c][1,4]benzoxazin-3-yl]propyl}-1-methylpiperazin-2-one] | ≤ 30 |
| CC(=O)C1=NN2c3cc(F)ccc3OC[C@H]2[C@@]1(CCCN1CCN(C(=O)N(C)C)CC1)c1ccccc1 [Compound 4-29, 4-{3-[(3R,4R)-2-acetyl-8-fluoro-3-phenyl-3a,4-dihydro-3H-pyrazolo[5,1-c][1,4]benzoxazin-3-yl]propyl}-N,N-dimethylpiperazine-1-carboxamide] | ≤ 30 |
